One data set relates to TRPV4 gene. The data set is described as follows: cells. In kind it is cell-based, human. The conditions noted are these: for Expression level of TRPV4 gene (relative value): nhek cells, 10 µM; for fold induction at 10 µM: Homo sapiens, NHEK, light or radiation study, read-out: Expression level of TRPV4 gene (relative value). How it is done:
• (Confirmation of activity of aqueous composition containing δ-TPG and HD: expression of TRPV4 gene) • Normal human epidermal keratinocytes (NHEK, manufactured by KURABO INDUSTRIES LTD.) were seeded in a plastic petri dish at a seeding density of 10,000 cells/cm^2, and cultured for 24 hours in a normal human epidermal keratinocyte serum-free culture medium (manufactured by KURABO INDUSTRIES LTD.).
8.94 g of water, 1.0 g of HD, and 0.06 g of δ-TPG were mixed and stirred to obtain an aqueous composition. The above-described aqueous composition was added to a culture solution in which the above-described NHEK cells had been cultured for 24 hours, such that the final concentration of δ-TPG was 10 µM.
After adding the δ-TPG, the above-described culture solution was further cultured for 48 hours. Thereafter, the culture solution was irradiated with UVB at 60 mJ/cm^2 using a UVB irradiation device of UVP, LLC. Thereafter, a fresh normal human epidermal keratinocyte growth medium was added to the above-described culture solution, and the culture was further carried out for 24 hours. In this manner, evaluation cells were obtained.
Total RNA was extracted from the evaluation cells obtained above, and cDNA was synthesized. Subsequently, quantitative real-time PCR was carried out using the above-described cDNA as a template, and the expression level of the TRPV4 gene in the NHEK cells was quantified. The expression level of glyceraldehyde 3-phosphate dehydrogenase (GAPDH) was quantified as an internal standard gene. […] The expression level of the TRPV4 gene was standardized with reference to the expression level of the GAPDH gene in the NHEK cells. As a primer for amplifying the GAPDH gene, a primer GAPDH (ID: HA067812) manufactured by Takara Bio Inc. was used. As a primer for amplifying the TRPV4 gene, a primer TRPV4 (ID: HA186338) manufactured by Takara Bio Inc. was used.
The same operation as described above was carried out using, instead of δ-TPG, D-α-tocopheryl glucoside (hereinafter, may be abbreviated as "α-TPG"), tocopherol acetate (FUJIFILM Wako Pure Chemical Corporation; hereinafter, may be abbreviated as "TPA"), δ-tocopherol (Sigma-Aldrich Co., LLC; hereinafter, may be abbreviated as "δ-TP"), or α-tocopherol (SEIKO-EPSON CORPORATION; hereinafter, may be abbreviated as "α-TP"), thereby obtaining evaluation cells. The expression level of the TRPV4 gene was measured for these evaluation cells by the same operation as described above.
The expression level of the TRPV4 gene was determined as a relative value when the expression level of the TRPV4 gene in reference cells was set to 1. The reference cells were prepared by culturing the NHEK cells without adding a test compound to the cell culture solution and without irradiating the cells with UVB. HD was added to the cell culture solution of the reference cells so that the HD concentration in the cell culture solution was the same as that in the culture solution when δ-TPG was added and cultured. The culture conditions for the NHEK cells were the same as those when δ-TPG was added, except that δ-TPG was not added and UVB irradiation was not carried out.
Comparative cells were prepared by culturing the NHEK cells by not adding the test compound to the cell culture solution and irradiating the cells with UVB. […] The expression level of the TRPV4 gene in the comparative cells was determined by the same method as described above.

In the next data set the test system is claudin 1 (CLDN1) gene. The data set is described as follows: Expression of TJ-related gene CLDN1 in UVB-irradiated NHEK cells, quantitative real-time PCR. In kind it is cell-based, human. To be noted: for fold induction at 10 µM: Homo sapiens, light or radiation study, read-out: Expression level of gene (relative value) CLDN1 gene. On the procedure: (§1) • (Confirmation of activity of aqueous composition with δ-TPG and HD: effect of promoting expression of TJ-related gene) • Normal human epidermal keratinocytes (NHEK, manufactured by KURABO INDUSTRIES LTD.) were subjected to the same operation as in Experimental Example 2 to obtain evaluation cells.
(§2) Total RNA was extracted from the evaluation cells thus obtained, and cDNA was synthesized. Subsequently, quantitative real-time PCR was carried out using the above-described cDNA as a template, and the expression levels of the claudin 1 (CLDN1) gene and occludin (OCL) gene in the NHEK cells were quantified. In addition, the expression level of GAPDH was quantified as an internal standard gene. The expression levels of the CLDN1 gene and OCL gene were standardized with reference to the expression level of the GAPDH gene in the NHEK cells. As a primer for amplifying the GAPDH gene, a primer GAPDH (ID: HA067812) manufactured by Takara Bio Inc. was used. As a primer for amplifying the CLDN1 gene, a primer CLDN1 (ID: HA103348) manufactured by Takara Bio Inc. was used. As a primer for amplifying the OCL gene, a primer OCL (ID: HA036753) manufactured by Takara Bio Inc. was used.
(§3) The same operation as described above was performed using, instead of δ-TPG, α-TPG, TPA, δ-TP, or α-TP to obtain evaluation cells. The expression levels of the CLDN1 gene and OCL gene were measured for these evaluation cells by the same operation as described above.
(§4) The expression level of each gene was determined as a relative value when the expression level of each gene in reference cells was set to 1. The reference cells were prepared by the same operation as the reference cells in Experimental Example 2.
(§5) The expression levels of the CLDN1 gene and OCL gene in comparative cells were determined by the same method as described above. The comparative cells were prepared by the same operation as the comparative cells in Experimental Example 2.
In general terms: Quantitative PCR measures a nucleic acid by following its amplification.

The subject of another data set is occludin (OCL) gene. The data set is described as follows: Expression of TJ-related gene OCL in UVB-irradiated NHEK cells, quantitative real-time PCR. In kind it is cell-based, human. The conditions noted are these: for fold induction at 10 µM: Homo sapiens, light or radiation study, read-out: Expression level of gene (relative value) OCL gene. On the procedure: as §1, §2, §3, §4, §5

For data set [1], the system named is skin model (model "EP1-200"). The experiment in a line: TJ-forming ability evaluation test: transepidermal water loss (TEWL) of skin model. In kind it is cell-based. The conditions noted are these: cultured 24 hours. On the procedure: A skin model (model "EP1-200", manufactured by KURABO INDUSTRIES LTD.) was pre-cultured for 1 hour under the conditions of 37°C and 5% CO2. Subsequently, δ-TPG dissolved in a 0.5% by mass HD aqueous solution at a concentration of 0.2% by mass was added to the surface of the skin model, and the skin model was further cultured for 24 hours. Subsequently, δ-TPG was removed, the sample was washed three times with a phosphate buffer solution, and the transepidermal water loss (TEWL) was measured. A cyclone water vaporizer (manufactured by ASCH JAPAN Co.,Ltd.) was used for measuring the TEWL.
TEWL was measured by performing the same operation as described above using TPA instead of δ-TPG.
For comparison, a 0.5% by mass HD aqueous solution not containing δ-TPG instead of δ-TPG dissolved in a 0.5% by mass HD aqueous solution was used, and the same operation as described above was performed to measure the TEWL.
The same operation as described above was performed using δ-TP dissolved in 1% by mass of HD at a concentration of 0.2% by mass, instead of δ-TPG dissolved in 0.5% by mass of HD, and the TEWL was measured.
It was confirmed that TEWL was suppressed in the group in which δ-TPG was added. […]

Data set [2] in a line: Confirmation of solubility of tocopheryl glucoside (visual observation of vials). The conditions noted are these: aqueous composition not containing HD.
Description: The solubility of the D-δ-tocopheryl glucoside (hereinafter, may be abbreviated as "δ-TPG") was examined.
9.9 g of each of the mixtures was placed in individual vials, 0.01 g of solid δ-TPG was added to each vial, and the mixture was stirred at room temperature. After stirring for 1 hour, the state of each vial was observed.
[3] abbreviates: NHEK cells, final concentration 10 µM, UVB 60 mJ/cm^2 performed, relative to reference cells (HD, no UVB) = 1, standardized to GAPDH.
The mark [4] stands for this setting: 0.2% by mass in 0.5% by mass HD aqueous solution on skin model surface.

Read-outs that look alike come from different tables or passages of the source.

Consider D-α-tocopheryl glucoside [α-TPG/HD], for which, in the data set with TRPV4 gene, the “Expression level of TRPV4 gene (relative value)” value is recorded as 0.77. Moreover, in the data set with claudin 1 (CLDN1) gene (setting [3]), the “Expression level of gene (relative value) CLDN1 gene” value worked out at 1.24. Further, the “Expression level of gene (relative value) OCL gene” value in the data set on occludin (OCL) gene (setting [3]) is listed as 3.24.

For `Cc1cc(OC2OC(CO)C(O)C(O)C2O)cc2c1OC(C)(CCCC(C)CCCC(C)CCCC(C)C)CC2` [δ-TPG, D-δ-tocopheryl glucoside], the TEWL in data set [1] (setting [4]) is reported as 7.9 ± 1.7 g/(h·m^2). For the same compound, the fold induction at 10 µM in the data set on TRPV4 gene was 0.83; in the data set with claudin 1 (CLDN1) gene (setting [3]), 1.28; in the data set on occludin (OCL) gene (setting [3]) it was 3.45.

Take δ-tocopherol [δ-TP/HD]: the TEWL in data set [1] (0.2% by mass in 1% by mass of HD on skin model surface) is on record as 8.2 ± 1.2 g/(h·m^2). In addition, in the data set on TRPV4 gene, the “Expression level of TRPV4 gene (relative value)” value was 0.54. The “Expression level of gene (relative value) CLDN1 gene” value with claudin 1 (CLDN1) gene (nhek cells, 10 µM) is reported as 1.00. Also, the “Expression level of gene (relative value) OCL gene” value in the data set with occludin (OCL) gene (nhek cells, 10 µM) is given as 1.91.

As for `CC(=O)Oc1c(C)c(C)c2c(c1C)CCC(C)(CCCC(C)CCCC(C)CCCC(C)C)O2` (stereo not shown) [TPA/HD, tocopherol acetate], the TEWL in data set [1] (setting [4]) was 12.4 ± 0.8 g/(h·m^2). In addition, the fold induction at 10 µM with TRPV4 gene turned out to be 0.29; with claudin 1 (CLDN1) gene (setting [3]) it was 0.77; in the data set with occludin (OCL) gene (setting [3]), 1.12.

For `Cc1c(C)c2c(c(C)c1O)CCC(C)(CCCC(C)CCCC(C)CCCC(C)C)O2` (stereo not drawn) [α-TP/HD, α-tocopherol], the fold induction at 10 µM in the data set with TRPV4 gene amounted to 0.43; with claudin 1 (CLDN1) gene (NHEK), 1; with occludin (OCL) gene (NHEK) it was 2.48.

Turning to tocopheryl glucoside, the “solubility of tocopheryl glucoside” value in data set [2] was “not sufficiently dissolved”.

These data come from EP4640207A1, “AQUEOUS COMPOSITION AND EXTERNAL PREPARATION FOR SKIN” (Resonac Corporation, priority 2022, dated 2024).
